Reference: ChEMBL document CHEMBL1201862, “PubChem BioAssay data set” (2004)
Activity calls are given as the source filed them.

What was measured:
Protein RecA = molecular target: T1, Protein RecA (Mycobacterium tuberculosis, UniProt P9WHJ3); test: Fluorescence Cell-Free Homogeneous Dose Retest to Identify Inhibitors of RecA-Intein Splicing Activity. [Related pubchem assays (depositor defined):AID2097, AID2223, AID489010, AID492950]; type: functional
T1 sequence (P9WHJ3 whole entry): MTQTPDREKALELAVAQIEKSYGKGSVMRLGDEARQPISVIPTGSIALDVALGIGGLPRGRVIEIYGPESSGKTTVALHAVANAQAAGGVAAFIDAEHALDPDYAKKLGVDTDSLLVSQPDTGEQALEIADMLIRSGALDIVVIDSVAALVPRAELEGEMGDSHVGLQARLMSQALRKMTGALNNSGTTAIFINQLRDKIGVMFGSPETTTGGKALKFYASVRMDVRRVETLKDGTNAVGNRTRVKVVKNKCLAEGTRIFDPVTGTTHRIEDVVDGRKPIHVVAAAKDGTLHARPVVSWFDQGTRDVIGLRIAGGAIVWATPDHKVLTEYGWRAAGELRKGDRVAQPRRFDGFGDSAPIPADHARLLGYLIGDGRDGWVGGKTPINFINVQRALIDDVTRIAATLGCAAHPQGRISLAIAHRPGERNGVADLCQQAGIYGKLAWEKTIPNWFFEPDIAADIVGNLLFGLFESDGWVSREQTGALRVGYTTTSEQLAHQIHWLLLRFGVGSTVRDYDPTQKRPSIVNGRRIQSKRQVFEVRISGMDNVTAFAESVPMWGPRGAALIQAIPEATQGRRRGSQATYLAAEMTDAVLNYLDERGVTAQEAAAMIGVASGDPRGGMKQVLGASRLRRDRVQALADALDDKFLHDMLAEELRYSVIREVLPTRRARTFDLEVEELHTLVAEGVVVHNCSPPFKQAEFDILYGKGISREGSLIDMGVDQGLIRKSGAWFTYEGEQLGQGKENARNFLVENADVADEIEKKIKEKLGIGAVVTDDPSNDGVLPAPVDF

[1] = molecular target: T2, Replicative DNA helicase DnaB (Mycobacterium tuberculosis, UniProt P9WMR3); test: DnaB intein splicing inhibitors, dose response, biochemical, cell-free fluorescence (AID 449749); type: functional
T2 sequence (P9WMR3 whole entry): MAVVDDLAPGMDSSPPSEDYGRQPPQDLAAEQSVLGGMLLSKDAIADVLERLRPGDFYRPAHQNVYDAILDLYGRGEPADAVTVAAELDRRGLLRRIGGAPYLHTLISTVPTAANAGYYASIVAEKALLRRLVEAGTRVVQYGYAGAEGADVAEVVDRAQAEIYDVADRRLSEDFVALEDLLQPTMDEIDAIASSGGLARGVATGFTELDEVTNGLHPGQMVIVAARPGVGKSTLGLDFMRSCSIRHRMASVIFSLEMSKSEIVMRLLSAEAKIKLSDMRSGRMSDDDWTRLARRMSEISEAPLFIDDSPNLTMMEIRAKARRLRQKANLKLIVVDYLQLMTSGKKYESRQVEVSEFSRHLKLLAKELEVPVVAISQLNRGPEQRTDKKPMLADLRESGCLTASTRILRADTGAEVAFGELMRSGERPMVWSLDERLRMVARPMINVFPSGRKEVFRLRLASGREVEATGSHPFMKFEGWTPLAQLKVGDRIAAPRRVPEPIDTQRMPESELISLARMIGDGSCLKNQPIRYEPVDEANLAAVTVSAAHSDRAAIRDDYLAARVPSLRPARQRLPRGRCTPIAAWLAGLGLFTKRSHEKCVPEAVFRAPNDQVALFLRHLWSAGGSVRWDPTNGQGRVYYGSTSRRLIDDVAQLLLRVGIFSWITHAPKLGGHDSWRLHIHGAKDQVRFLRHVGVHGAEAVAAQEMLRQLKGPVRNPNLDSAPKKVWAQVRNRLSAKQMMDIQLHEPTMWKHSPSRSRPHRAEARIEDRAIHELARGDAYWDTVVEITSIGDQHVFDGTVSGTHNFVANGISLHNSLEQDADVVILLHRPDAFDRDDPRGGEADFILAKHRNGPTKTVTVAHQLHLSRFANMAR

[2] = A cytotoxicity screen of small molecule inhibitors of the PhoP region in Salmonella typhi identified in the primary screen. [Related pubchem assays: 1850, 1864, 1985 ]; type: functional
[3] = inhibitors of intracellular T. cruzi replication, confirmation, NIH3T3 host cells, beta-gal luminescence (AID 2044); type: functional, cell-based;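 note: intracellular parasites grown in NIH/3T3 mouse fibroblasts as host cells; luminescent beta-galactosidase reporter signal from transgenic T. cruzi replicating inside host cells; inhibitors lower the luminescence signal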
[4] = molecular target: T3, DNA repair protein RAD52 homolog (Homo sapiens, UniProt P43351); type: functional, biochemical
T3 sequence (P43351 whole entry): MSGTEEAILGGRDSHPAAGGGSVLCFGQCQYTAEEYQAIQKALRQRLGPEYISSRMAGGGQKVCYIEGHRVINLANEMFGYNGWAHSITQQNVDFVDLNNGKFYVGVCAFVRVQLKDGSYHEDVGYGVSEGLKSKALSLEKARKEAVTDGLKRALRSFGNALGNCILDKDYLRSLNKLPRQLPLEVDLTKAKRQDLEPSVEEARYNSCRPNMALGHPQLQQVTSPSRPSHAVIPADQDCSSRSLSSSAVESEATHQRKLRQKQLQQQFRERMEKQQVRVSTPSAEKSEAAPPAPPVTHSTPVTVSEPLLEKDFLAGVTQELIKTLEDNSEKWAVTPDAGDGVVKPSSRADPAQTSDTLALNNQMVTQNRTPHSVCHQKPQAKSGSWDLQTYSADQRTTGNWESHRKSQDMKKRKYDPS

[5] = cytotoxicity toward NIH3T3 fibroblasts, dose response, counter-screen, cell-based, ATP luminescence, mouse fibroblasts (AID 2010); type: functional;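 note: cells exposed to compound for about 90 hours before reading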
[6] = molecular target: Glyceraldehyde-3-phosphate dehydrogenase (Homo sapiens, UniProt P04406)
[7] = molecular target: FAD-linked sulfhydryl oxidase ALR (Homo sapiens, UniProt P55789); test: inhibitors of human ALR sulfhydryl oxidase, dose response, biochemical, H2O2 detection, luminescence, cherry-pick (AID 493248)
Cytochrome P450 2C9 = Cytochrome P450 2C9 (Homo sapiens, UniProt P11712)
Chain of Cytochrome P450 2C9 (P11712 whole entry): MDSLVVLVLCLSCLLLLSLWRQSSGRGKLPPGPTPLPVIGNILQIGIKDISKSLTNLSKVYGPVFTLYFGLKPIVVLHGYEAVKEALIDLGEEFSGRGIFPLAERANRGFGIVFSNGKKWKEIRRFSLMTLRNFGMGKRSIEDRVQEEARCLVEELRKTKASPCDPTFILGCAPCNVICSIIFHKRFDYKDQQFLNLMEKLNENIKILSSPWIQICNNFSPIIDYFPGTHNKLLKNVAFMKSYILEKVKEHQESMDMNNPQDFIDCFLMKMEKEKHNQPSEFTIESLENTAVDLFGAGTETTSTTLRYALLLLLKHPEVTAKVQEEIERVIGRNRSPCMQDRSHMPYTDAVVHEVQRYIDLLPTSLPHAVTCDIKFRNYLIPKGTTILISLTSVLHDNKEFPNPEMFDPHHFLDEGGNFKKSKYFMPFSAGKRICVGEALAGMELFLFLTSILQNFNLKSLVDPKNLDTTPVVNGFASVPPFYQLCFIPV

Chain of Glyceraldehyde-3-phosphate dehydrogenase (P04406 whole entry): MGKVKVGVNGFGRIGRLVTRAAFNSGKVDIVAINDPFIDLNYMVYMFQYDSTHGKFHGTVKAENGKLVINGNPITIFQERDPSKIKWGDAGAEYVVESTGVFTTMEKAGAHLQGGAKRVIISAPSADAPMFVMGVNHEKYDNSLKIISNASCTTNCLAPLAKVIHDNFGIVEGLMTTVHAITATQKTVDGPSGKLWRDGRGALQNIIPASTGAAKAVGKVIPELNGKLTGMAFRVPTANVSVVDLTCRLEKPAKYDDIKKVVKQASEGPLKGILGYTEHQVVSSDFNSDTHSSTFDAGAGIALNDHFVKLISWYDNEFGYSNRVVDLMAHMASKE
Chain of FAD-linked sulfhydryl oxidase ALR (P55789 whole entry): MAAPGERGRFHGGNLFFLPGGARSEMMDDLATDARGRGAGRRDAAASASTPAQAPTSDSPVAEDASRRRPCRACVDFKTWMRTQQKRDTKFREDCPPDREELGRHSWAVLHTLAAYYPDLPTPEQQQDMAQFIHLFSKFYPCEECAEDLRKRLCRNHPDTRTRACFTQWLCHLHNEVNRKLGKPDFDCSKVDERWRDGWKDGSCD

SMILES | EC50 (Protein RecA) | AC50 [1] | EC50 [2] | other results
CCCCCCOC(=O)c1ccccc1NC(=O)/C=C/C(=O)O | 3.41 µM (active) | > 380 µM (inactive) |  | 
Fc1ccc(CCNCc2ccccc2Cl)cc1 |  |  | > 50 µM (active) | 
CN1CCN(CCCNC(=O)c2ccc(/C=C3/Sc4ccccc4N(Cc4cccc(Cl)c4)C3=O)cc2)CC1 |  |  |  | EC50 [3]: 0.11 µM (active); AC50 [4]: 14 µM (active); EC50 [5]: 5.71 µM (active)
COc1ccc(NC(=O)C(Cc2ccccc2)n2cccc2)cc1 (configuration not stated) |  |  | > 50 µM (active) | 
COc1cccc(N2CCN(C3=C(Cl)C(=O)N(c4cccc(C)c4)C3=O)CC2)c1 |  |  |  | IC50 [6]: > 50 µM (inconclusive)
CC1=NNC(=O)C1C(c1ccc(Cl)cc1)C(C#N)C#N (configuration not stated) | 3.26 µM (active) | 7.84 µM (active) |  | 
O=C1C(Cl)=C(N2CCN(C/C=C/c3ccccc3)CC2)C(=O)N1c1cccc(C(F)(F)F)c1 |  |  |  | IC50 [6]: > 50 µM (inconclusive)
Cc1ccc(Cn2c(=N)c(C(=O)NCCN3CCOCC3)cc3c(=O)n4ccccc4nc32)cc1 |  |  | > 50 µM (active) | 
Cc1ccc(Sc2c([N+](=O)[O-])ncn2C)cc1 | 34.6 µM (active) | 112 µM (active) |  | AC50 [7]: 0.27 µM (active); AC50 (Cytochrome P450 2C9): 1.58 µM (inconclusive)
CN1CCN(CC(O)COc2ccc(C34CC5CC(CC(C5)C3)C4)cc2)CC1 (configuration not stated) |  |  |  | AC50 [4]: 10.5 µM (active)
